ChEMBL document CHEMBL1201862, “PubChem BioAssay data set” (2004)
Calls of active or inactive are those of the source. Cut-off read from the data, not from the text of the source, for most assays here: actives have a measured EC50 and inactives only a lower limit.

Legend:
[1] = inhibitors of firefly luciferase expression or activity, dose response, H4 neuroglioma cells, luminescence (AID 1990); assay type: functional, cell-based
[2] = Luminescence Cell-Based Dose Response HTS to Identify Inhibitors of 5'UTR Stem-Loop Driven Prion Protein mRNA Translation in H4 Neuroglioblastoma Cells. [Related pubchem assays: 1827 (Project Summary), 1813 (Primary HTS)]; assay type: functional
[3] = inhibitors of SNCA 5'UTR-driven reporter translation, confirmation, H4 neuroglioma cells, luminescence (AID 1988); assay type: functional, cell-based
[4] = target: T1, Heat shock factor protein 1 (Mus musculus, UniProt P38532); test: inhibition of MG132-induced HSE-luciferase signal, confirmation, cell-based, NIH3T3, luminescence, dose retest (AID 2382); assay type: functional;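 note: NIH3T3 fibroblasts with HSF1-driven luciferase reporter stressed by proteasome inhibitor MG132; luminescence from HSF1-driven luciferase expression after 8 hours of MG132 stress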
T1 sequence (P38532 whole entry): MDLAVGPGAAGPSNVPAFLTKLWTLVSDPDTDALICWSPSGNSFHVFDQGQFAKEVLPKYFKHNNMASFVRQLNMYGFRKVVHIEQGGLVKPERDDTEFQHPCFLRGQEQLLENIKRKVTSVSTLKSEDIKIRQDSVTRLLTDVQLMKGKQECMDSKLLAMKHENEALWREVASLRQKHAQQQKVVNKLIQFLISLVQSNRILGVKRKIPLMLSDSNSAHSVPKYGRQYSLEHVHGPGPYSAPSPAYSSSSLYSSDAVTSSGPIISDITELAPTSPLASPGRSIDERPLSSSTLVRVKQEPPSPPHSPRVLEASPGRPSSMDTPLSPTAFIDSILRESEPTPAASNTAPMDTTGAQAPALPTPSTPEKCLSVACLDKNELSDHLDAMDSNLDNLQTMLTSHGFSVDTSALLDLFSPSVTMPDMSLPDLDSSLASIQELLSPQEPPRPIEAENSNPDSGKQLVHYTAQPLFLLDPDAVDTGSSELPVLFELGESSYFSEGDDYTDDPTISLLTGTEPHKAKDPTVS

Protein RecA = target: T2, Protein RecA (Mycobacterium tuberculosis, UniProt P9WHJ3); test: Fluorescence Cell-Free Homogeneous Dose Retest to Identify Inhibitors of RecA-Intein Splicing Activity. [Related pubchem assays (depositor defined):AID2097, AID2223, AID489010, AID492950]; assay type: functional
T2 sequence (P9WHJ3 whole entry): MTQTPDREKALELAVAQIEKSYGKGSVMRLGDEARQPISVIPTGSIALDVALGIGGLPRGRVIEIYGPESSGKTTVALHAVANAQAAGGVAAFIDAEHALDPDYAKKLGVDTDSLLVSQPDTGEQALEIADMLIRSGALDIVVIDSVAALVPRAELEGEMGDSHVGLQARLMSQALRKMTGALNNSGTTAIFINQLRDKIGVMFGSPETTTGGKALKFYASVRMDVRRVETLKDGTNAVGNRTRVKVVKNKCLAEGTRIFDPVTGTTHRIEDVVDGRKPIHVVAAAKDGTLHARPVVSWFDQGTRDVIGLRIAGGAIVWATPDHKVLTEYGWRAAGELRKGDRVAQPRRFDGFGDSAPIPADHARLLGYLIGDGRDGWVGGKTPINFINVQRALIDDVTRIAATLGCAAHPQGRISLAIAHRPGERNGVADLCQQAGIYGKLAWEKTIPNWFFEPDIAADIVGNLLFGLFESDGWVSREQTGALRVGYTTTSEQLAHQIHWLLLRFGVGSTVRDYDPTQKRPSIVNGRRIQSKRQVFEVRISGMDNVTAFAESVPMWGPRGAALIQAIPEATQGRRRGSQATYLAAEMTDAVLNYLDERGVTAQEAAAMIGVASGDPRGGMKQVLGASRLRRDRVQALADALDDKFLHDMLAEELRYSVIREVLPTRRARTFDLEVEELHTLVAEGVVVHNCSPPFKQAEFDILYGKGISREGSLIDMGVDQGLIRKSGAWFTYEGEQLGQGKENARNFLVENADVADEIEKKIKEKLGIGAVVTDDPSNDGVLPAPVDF

[5] = target: T3, Replicative DNA helicase DnaB (Mycobacterium tuberculosis, UniProt P9WMR3); test: DnaB intein splicing inhibitors, dose response, biochemical, cell-free fluorescence (AID 449749); assay type: functional
T3 sequence (P9WMR3 whole entry): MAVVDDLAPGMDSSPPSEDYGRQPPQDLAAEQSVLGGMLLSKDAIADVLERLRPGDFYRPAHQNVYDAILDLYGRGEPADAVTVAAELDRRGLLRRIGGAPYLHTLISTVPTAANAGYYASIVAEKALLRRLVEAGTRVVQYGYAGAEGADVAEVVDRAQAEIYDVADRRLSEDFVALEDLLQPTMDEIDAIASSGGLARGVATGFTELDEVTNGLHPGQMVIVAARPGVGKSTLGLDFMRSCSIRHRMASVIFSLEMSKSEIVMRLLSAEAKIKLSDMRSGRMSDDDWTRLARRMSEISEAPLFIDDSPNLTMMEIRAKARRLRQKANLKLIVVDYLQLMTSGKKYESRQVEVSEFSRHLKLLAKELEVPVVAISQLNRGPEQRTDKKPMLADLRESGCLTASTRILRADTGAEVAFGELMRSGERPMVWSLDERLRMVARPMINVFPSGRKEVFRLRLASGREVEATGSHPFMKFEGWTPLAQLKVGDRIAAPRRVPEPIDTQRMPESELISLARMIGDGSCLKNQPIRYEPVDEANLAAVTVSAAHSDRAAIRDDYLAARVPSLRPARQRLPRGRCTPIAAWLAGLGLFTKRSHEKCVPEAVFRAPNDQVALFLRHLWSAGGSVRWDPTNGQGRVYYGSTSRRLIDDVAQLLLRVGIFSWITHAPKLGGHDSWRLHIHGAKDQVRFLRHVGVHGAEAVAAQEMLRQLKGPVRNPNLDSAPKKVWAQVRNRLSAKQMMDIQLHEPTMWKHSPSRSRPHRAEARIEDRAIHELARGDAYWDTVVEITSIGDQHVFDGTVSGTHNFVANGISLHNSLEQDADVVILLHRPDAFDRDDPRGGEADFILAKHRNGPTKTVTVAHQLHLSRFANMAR

Protein skinhead-1 = target: T4, Protein skinhead-1 (Caenorhabditis elegans, UniProt P34707); assay type: functional
T4 sequence (P34707 whole entry): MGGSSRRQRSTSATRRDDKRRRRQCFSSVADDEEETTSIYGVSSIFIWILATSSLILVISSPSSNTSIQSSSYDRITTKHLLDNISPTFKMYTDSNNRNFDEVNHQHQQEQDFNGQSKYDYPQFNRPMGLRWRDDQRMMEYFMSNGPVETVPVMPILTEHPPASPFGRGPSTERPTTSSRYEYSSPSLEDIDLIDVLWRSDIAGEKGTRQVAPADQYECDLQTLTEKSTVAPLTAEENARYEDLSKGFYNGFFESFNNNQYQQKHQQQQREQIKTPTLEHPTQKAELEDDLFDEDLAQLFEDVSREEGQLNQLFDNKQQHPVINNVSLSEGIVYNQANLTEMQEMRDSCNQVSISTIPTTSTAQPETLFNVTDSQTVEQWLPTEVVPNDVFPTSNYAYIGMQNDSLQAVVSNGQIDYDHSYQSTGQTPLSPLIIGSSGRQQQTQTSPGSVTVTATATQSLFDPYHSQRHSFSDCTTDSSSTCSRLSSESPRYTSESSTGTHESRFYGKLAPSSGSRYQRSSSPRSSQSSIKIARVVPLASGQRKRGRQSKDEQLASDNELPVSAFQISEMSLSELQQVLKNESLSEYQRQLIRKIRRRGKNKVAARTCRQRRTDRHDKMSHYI

[6] = Luminescence Cell-Based Dose Response HTS to Identify Activators of Luciferase Translation or Activity in H4 […] Cells. [Related pubchem assays: 1829 (Project Summary), 1814 (Primary HTS)]; assay type: functional
H4 = test: Luminescence Cell-Based Dose Response HTS to Identify Activators of 5'UTR Stem-Loop Driven Prion Protein mRNA Translation in H4 Neuroglioblastoma Cells. [Related pubchem assays: 1829 (Project Summary), 1814 (Primary HTS)]; assay type: functional; conditions: Homo sapiens

## Cc1cc(Oc2ccc3ccccc3c2)nc(SCC(=O)c2ccccc2)n1
[1]
  EC50: > 120 µM (not active)
[2]
  EC50: 15 µM (active)
[3]
  EC50: 26.9 µM (active)

## CCOc1ccc(CNS(=O)(=O)c2c(C)nc3scc(C)n3c2=O)cc1OC
[4]
  EC50: > 195 µM (not active)

## O=C(Nc1ccc(N2CCN(c3ccc(O)cc3)CC2)cc1)Oc1ccccc1
[4]
  EC50: > 195 µM (not active)

## COc1cc(-c2onc3ccc(Br)cc23)cc(OC)c1OC
[1]
  EC50: > 120 µM (not active)
[2]
  EC50: 10.8 µM (active)
[3]
  EC50: 4.29 µM (active)

## CCOc1ccccc1-n1c(CN2CCN(C(=O)c3ccco3)CC2)nc2ccccc2c1=O
[1]
  EC50: 8.25 µM (active)
[2]
  EC50: 8.43 µM (active)
[3]
  EC50: 7.97 µM (active)

## Cc1n[nH]c2c1C(c1ccco1)C(C#N)=C(N)O2 (configuration not stated)
Protein RecA
  EC50: 4.28 µM (active)
[5]
  AC50: 54.1 µM (active)

## CC(C)CCNC(=O)c1cnn2c(C(F)(F)F)cc(-c3ccco3)nc12
Protein skinhead-1
  IC50: > 100 µM (inactive)

## O=C(Nc1ccccc1-c1nc2ccccc2s1)c1cccnc1
[4]
  EC50: > 195 µM (not active)

## N#CC1=C(N)Oc2[nH]nc(-c3cccs3)c2C1c1ccoc1 (configuration not stated)
Protein RecA
  EC50: 7.09 µM (active)
[5]
  AC50: 10.4 µM (active)

## O=C(c1cnn2c(C(F)F)cc(-c3ccccc3)nc12)N1CCCc2ccccc21
[1]
  EC50: 19.2 µM (active)
[2]
  EC50: 23.8 µM (active)
[3]
  EC50: 26.3 µM (active)

## CC1CCc2nc(NC(=O)C3COc4ccccc4O3)sc2C1 (configuration not stated)
[1]
  EC50: 5.93 µM (inconclusive)
[2]
  EC50: 10 µM (active)
[3]
  EC50: 5.45 µM (active)

## COc1ccc(CNC(=O)C2CCN(S(=O)(=O)c3ccc4c(c3)C(C)(C)C(=O)N4C)CC2)cc1
[4]
  EC50: 55.2 µM (active)

## Brc1ccc(-c2nc(-c3ccncc3)no2)o1
Protein skinhead-1
  IC50: 86.1 µM (inactive)

## COc1ccc(C=O)cc1CN1CCCN(Cc2ccc(Cl)cc2)S1(=O)=O
[4]
  EC50: > 195 µM (not active)

## Cc1ccccc1Cn1nnc2c1C(=O)c1ccccc1C2=O
[1]
  EC50: > 120 µM (not active)
[2]
  EC50: > 120 µM (not active)
[3]
  EC50: > 60 µM (not active)

## O=S(=O)(O)Oc1c[nH]c2ccccc12
Protein RecA
  EC50: 0.155 µM (active)
[5]
  AC50: 1.34 µM (active)

## CCCC(=O)Nc1cccc(NC(=O)c2cccc([N+](=O)[O-])c2C)c1
[4]
  EC50: 20.5 µM (active)

## O=C(Nc1nc(C(F)(F)F)n[nH]1)c1cccs1
Protein RecA
  EC50: 9.84 µM (active)
[5]
  AC50: 3.65 µM (active)

## COc1cc(C2NC(=O)NC(C)=C2C(=O)OCC2CCCO2)ccc1O (configuration not stated)
[4]
  EC50: > 195 µM (not active)

## O=C(c1ccccc1)N1C(=O)C(c2ccccc2)Oc2ccccc21 (configuration not stated)
[1]
  EC50: > 120 µM (not active)
[2]
  EC50: > 120 µM (not active)
[3]
  EC50: > 120 µM (not active)

## COCCCNC(=O)COc1ccc2oc3c(c2c1)CCCC3
Protein skinhead-1
  IC50: > 100 µM (inactive)

## O=S(=O)(c1cc(Cl)ccc1Cl)N1CCC2(CC1)OCCO2
[4]
  EC50: > 195 µM (not active)

## O=C(OCc1ccccc1)c1ccc2c(c1)-c1ccccc1C2=O
[6]
  EC50: 14.8 µM (active)
H4
  EC50: 11.1 µM (active)

## Cc1ccc(Cl)c(N/C=C/C(=O)c2ccccc2)c1
Protein skinhead-1
  IC50: 27.9 µM (active)

## CC(Oc1ccc(Cl)cc1)c1ccnn1S(C)(=O)=O (configuration not stated)
Protein skinhead-1
  IC50: > 100 µM (inactive)

## CCC(=O)CCC(=O)c1ccc2ccccc2c1
[4]
  EC50: > 195 µM (not active)

## O=c1c([N+](=O)[O-])c(N2CCOCC2)c2ccccc2n1Cc1ccccc1
[1]
  EC50: 19 µM (active)
[2]
  EC50: > 120 µM (not active)
[3]
  EC50: > 120 µM (not active)

## Cc1ccc(-c2nnc(-c3cccs3)o2)cc1
Protein skinhead-1
  IC50: 35.5 µM (active)

## N#Cc1cc([N+](=O)[O-])ccc1NC(=O)COC(=O)CCC1CCCCC1
Protein RecA
  EC50: 3.31 µM (active)
[5]
  AC50: 1.72 µM (active)

## O=C(c1cnn2c(C(F)(F)F)cc(-c3ccco3)nc12)N1CCCc2ccccc21
Protein skinhead-1
  IC50: > 100 µM (inactive)

## CS(=O)(=O)NNC(=O)CN1C(=O)C2C3C=CC(C3)C2C1=O (configuration not stated)
[1]
  EC50: > 120 µM (not active)
[2]
  EC50: 22.1 µM (active)
[3]
  EC50: > 120 µM (not active)

## Cn1c(SCC(=O)NCC2CCCO2)ncc(C(=O)Nc2ccc(F)cc2)c1=O (configuration not stated)
Protein RecA
  EC50: 0.315 µM (active)
[5]
  AC50: 0.51 µM (active)

## O=S(=O)(Nc1c(O)ccc2ccccc12)c1ccc(F)cc1
Protein RecA
  EC50: 1.16 µM (active)
[5]
  AC50: 12.2 µM (active)

## CC(=O)/C(=N\Nc1ccc(Cl)cc1)Sc1nnc(-c2ccccc2)n1-c1ccccc1
[4]
  EC50: > 195 µM (not active)

## Cc1cc(=O)n(-c2ccccc2Cl)[nH]1
Protein RecA
  EC50: 5.4 µM (active)
[5]
  AC50: 10.7 µM (active)

## C/C(CC(=O)Nc1ccccn1)=N\NC(=O)c1cccc(C)c1
Protein RecA
  EC50: 7.75 µM (active)
[5]
  AC50: 20.1 µM (active)

## COc1ccc(CCN2C(=O)CS/C2=N\NC(=O)c2ccc(C(C)(C)C)cc2)cc1OC
[1]
  EC50: 22.4 µM (active)
[2]
  EC50: 21.1 µM (active)
[3]
  EC50: > 120 µM (not active)
